According to patent publication US9133158B2, “Bicyclic dihydroisoquinoline-1-one derivatives” (Hoffmann-La Roche Inc., priority 2011, dated 2015):

What was measured:
human CYP11B1 = molecular target: T1, human CYP11B1 (Homo sapiens, UniProt P15538); assay: G-402 cellular enzyme assay, human CYP11B1 (cortisol release, HTRF); assay type: cell-based; conditions: G-402 cells, 1 μM Deoxycortisol
T1 construct: expressed in transfected cells
T1 sequence (P15538 25-503): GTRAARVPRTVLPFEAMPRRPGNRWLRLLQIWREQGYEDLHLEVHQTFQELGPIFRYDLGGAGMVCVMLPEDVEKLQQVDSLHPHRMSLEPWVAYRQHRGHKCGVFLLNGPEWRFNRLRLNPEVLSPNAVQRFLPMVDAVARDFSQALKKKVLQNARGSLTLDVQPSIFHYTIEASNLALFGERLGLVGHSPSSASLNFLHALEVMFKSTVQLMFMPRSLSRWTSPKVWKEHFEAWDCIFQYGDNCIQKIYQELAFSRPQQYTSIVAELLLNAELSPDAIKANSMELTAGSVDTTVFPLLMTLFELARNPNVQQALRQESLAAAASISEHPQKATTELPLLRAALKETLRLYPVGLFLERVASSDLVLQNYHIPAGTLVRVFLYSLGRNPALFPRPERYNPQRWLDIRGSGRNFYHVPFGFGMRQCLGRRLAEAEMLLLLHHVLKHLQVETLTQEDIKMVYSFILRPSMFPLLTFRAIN
In short: (§1)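 Inhibition of steroid release was taken as enzyme inhibition. CYP11B1 assays used 1 μM deoxycortisol with cortisol detection, CYP11B2 assays 1 μM deoxycorticosterone with aldosterone detection, both by HTRF after 16 h in stable G-402 cells; EC50 from least-squares MMF fit.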

human CYP11B2 = molecular target: T2, human CYP11B2 (Homo sapiens, UniProt P19099); assay: G-402 cellular enzyme assay, human CYP11B2 (aldosterone release, HTRF); assay type: cell-based; conditions: G-402 cells, 1 μM Deoxycorticosterone
T2 construct: expressed in transfected cells
T2 sequence (P19099 25-503): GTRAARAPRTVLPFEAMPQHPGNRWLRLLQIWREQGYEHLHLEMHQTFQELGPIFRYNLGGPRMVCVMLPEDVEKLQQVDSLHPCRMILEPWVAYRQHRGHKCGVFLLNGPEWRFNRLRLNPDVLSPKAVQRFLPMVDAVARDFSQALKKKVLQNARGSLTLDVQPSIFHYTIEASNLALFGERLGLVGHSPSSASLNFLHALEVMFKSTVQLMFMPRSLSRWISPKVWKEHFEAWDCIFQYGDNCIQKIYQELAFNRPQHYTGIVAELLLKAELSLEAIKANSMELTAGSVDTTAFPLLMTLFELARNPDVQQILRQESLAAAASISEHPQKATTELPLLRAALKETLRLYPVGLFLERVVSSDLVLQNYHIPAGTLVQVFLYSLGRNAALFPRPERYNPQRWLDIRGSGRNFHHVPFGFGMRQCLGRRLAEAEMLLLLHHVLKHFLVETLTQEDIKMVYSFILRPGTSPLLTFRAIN
In short: as §1

## CCS(=O)(=O)N1CC[C@H](Oc2cncc(N3C(=O)c4ccc(Cl)cc4C3(C)C)c2)C1 [Example 448, 5-Chloro-2-[5-((S)-1-ethanesulfonyl-pyrrolidin-3-yloxy)-pyridin-3-yl]-3,3-dimethyl-2,3-dihydro-isoindol-1-one]
Human CYP11B1
  EC50: 1980 nM
Human CYP11B2
  EC50: 21.2 nM

## O=C1c2ccc(Cl)cc2CCN1c1cncc(-c2ccccc2C(F)(F)F)c1 [Example 242, 6-Chloro-2-[5-(2-trifluoromethyl-phenyl)-pyridin-3-yl]-3,4-dihydro-2H-isoquinolin-1-one]
Human CYP11B1
  EC50: 206 nM
Human CYP11B2
  EC50: 25.6 nM

## CC[C@@H]1c2cc(Cl)ccc2C(=O)N1c1cncc2c1CCC[C@H]2NC(C)=O (single isomer, unassigned) [Example 358, N-[(R or S)-4-((R or S)-5-Chloro-3-ethyl-1-oxo-1,3-dihydro-isoindol-2-yl)-5,6,7,8-tetrahydro-isoquinolin-8-yl]-acetamide]
Human CYP11B1
  EC50: 433 nM
Human CYP11B2
  EC50: 5 nM

## CC(=O)NCc1cncc(N2CCc3cc(Cl)ccc3C2=O)c1 [Example 153, N-[5-(6-Chloro-1-oxo-3,4-dihydro-1H-isoquinolin-2-yl)-pyridin-3-ylmethyl]-acetamide]
Human CYP11B1
  EC50: 15000 nM
Human CYP11B2
  EC50: 302 nM

## CN1CCCC1CCOCc1cncc(N2CCc3cc(Cl)ccc3C2=O)c1 (stereo not shown) [Example 196, 6-Chloro-2-{5-[2-(1-methyl-pyrrolidin-2-yl)-ethoxymethyl]-pyridin-3-yl}-3,4-dihydro-2H-isoquinolin-1-one]
Human CYP11B1
  EC50: 1030 nM
Human CYP11B2
  EC50: 178 nM

## CC(=O)N1CCC(c2cncc(N3C(=O)c4ccc(Cl)cc4C3(C)C)c2)C1 (stereo not shown) [Example 460, 2-[5-(1-Acetyl-pyrrolidin-3-yl)-pyridin-3-yl]-5-chloro-3,3-dimethyl-2,3-dihydro-isoindol-1-one]
Human CYP11B1
  EC50: 516 nM
Human CYP11B2
  EC50: 12.3 nM

## O=C1c2ccc(Cl)cc2CCN1c1cncc(Cn2cnnc2)c1 [Example 179, 6-Chloro-2-(5-[1,2,4]triazol-4-ylmethyl-pyridin-3-yl)-3,4-dihydro-2H-isoquinolin-1-one]
Human CYP11B1
  EC50: 7720 nM
Human CYP11B2
  EC50: 620 nM

## CNC(C)c1cncc(N2CCc3cc(Cl)ccc3C2=O)c1 (stereo not shown) [Example 265, 6-Chloro-2-[5-(1-methylamino-ethyl)-pyridin-3-yl]-3,4-dihydro-2H-isoquinolin-1-one]
Human CYP11B1
  EC50: 5020 nM
Human CYP11B2
  EC50: 437 nM

## CCC(=O)NC1CCc2c1cncc2N1Cc2cc(Cl)ccc2C1=O (single isomer, unassigned) [Example 339, N-[(R or S)-4-(5-Chloro-1-oxo-1,3-dihydro-isoindol-2-yl)-6,7-dihydro-5H-[2]pyrindin-7-yl]-propionamide]
Human CYP11B1
  EC50: 7990 nM
Human CYP11B2
  EC50: 54.5 nM

## COc1cncc(N2CCc3nc(O)ccc3C2=O)c1 [Example 139, 2-Hydroxy-6-(5-methoxy-pyridin-3-yl)-7,8-dihydro-6H-[1,6]naphthyridin-5-one]
Human CYP11B1
  EC50: 11200 nM
Human CYP11B2
  EC50: 953 nM

## COC[C@@H]1CCCN1Cc1cncc(N2Cc3cc(Cl)ccc3C2=O)c1 [Example 113, 5-Chloro-2-[5-((S)-2-methoxymethyl-pyrrolidin-1-ylmethyl)-pyridin-3-yl]-2,3-dihydro-isoindol-1-one]
Human CYP11B1
  EC50: 1360 nM
Human CYP11B2
  EC50: 342 nM

## O=C1c2ccc(Cl)cc2CCN1c1cncc(-c2cnoc2)c1 [Example 243, 6-Chloro-2-(5-isoxazol-4-yl-pyridin-3-yl)-3,4-dihydro-2H-isoquinolin-1-one]
Human CYP11B1
  EC50: 3340 nM
Human CYP11B2
  EC50: 268 nM

## CCS(=O)(=O)N(C)Cc1cncc(N2C(=O)c3ccc(F)cc3C23CC3)c1 [Example 394, N-{[5-(6′-Fluoro-3′-oxospiro [cyclopropane-1,1′-isoindol]-2′(3′H)-yl)pyridin-3-yl]methyl}-N-methylethane-sulfonamide]
Human CYP11B1
  EC50: 2920 nM
Human CYP11B2
  EC50: 45.6 nM

## CC1(C)c2ccc(F)cc2C(=O)N1c1cncc(CNS(C)(=O)=O)c1 [Example 406, N-[5-(5-Fluoro-1,1-dimethyl-3-oxo-1,3-dihydro-isoindol-2-yl)-pyridin-3-ylmethyl]-methane-sulfonamide]
Human CYP11B1
  EC50: 3150 nM
Human CYP11B2
  EC50: 165 nM

## O=C1c2ccc(Cl)cc2CCN1c1cncc(Cn2cc3ccccc3n2)c1 [Example 183, 6-Chloro-2-(5-indazol-2-ylmethyl-pyridin-3-yl)-3,4-dihydro-2H-isoquinolin-1-one]
Human CYP11B1
  EC50: 385 nM
Human CYP11B2
  EC50: 29.9 nM

## CC(=O)N[C@@H]1CCCc2c1cncc2N1C(=O)c2ccc(Cl)cc2[C@H]1C1CC1 (single isomer, unassigned) [Example 372, N-[(R or S)-4-((R or S)-5-Chloro-3-cyclopropyl-1-oxo-1,3-dihydro-isoindol-2-yl)-5,6,7,8-tetrahydro-isoquinolin-8-yl]-acetamide]
Human CYP11B1
  EC50: 22800 nM
Human CYP11B2
  EC50: 100 nM

## COC(c1cncc(N2CCc3cc(Cl)ccc3C2=O)c1)C(F)(F)F (stereo not shown) [Example 19, 6-Chloro-2-[5-(2,2,2-trifluoro-1-methoxy-ethyl)-pyridin-3-yl]-3,4-dihydro-2H-isoquinolin-1-one]
Human CYP11B1
  EC50: 198 nM
Human CYP11B2
  EC50: 60.3 nM

## O=C1c2ccc(Cl)cc2CCN1c1cncc(Cn2ccc3cccc(F)c32)c1 [Example 185, 6-Chloro-2-[5-(7-fluoro-indol-1-ylmethyl)-pyridin-3-yl]-3,4-dihydro-2H-isoquinolin-1-one]
Human CYP11B1
  EC50: 673 nM
Human CYP11B2
  EC50: 66 nM

## Cn1ccnc1C(=O)NCc1cncc(N2C(=O)c3ccc(Cl)cc3C2(C)C)c1 [Example 432, 1-Methyl-1H-imidazole-2-carboxylic acid [5-(6-chloro-1,1-dimethyl-3-oxo-1,3-dihydro-isoindol-2-yl)-pyridin-3-ylmethyl]-amide]
Human CYP11B1
  EC50: 1450 nM
Human CYP11B2
  EC50: 22.2 nM

## CC1(C)c2cc(Cl)ccc2C(=O)N1c1cnccc1Cl [Example 285, 5-Chloro-2-(4-chloro-pyridin-3-yl)-3,3-dimethyl-2,3-dihydro-isoindol-1-one]
Human CYP11B1
  EC50: 356 nM
Human CYP11B2
  EC50: 7.6 nM

## Cc1noc(C)c1Cc1cncc(N2CCc3cc(Cl)ccc3C2=O)c1 [Example 204, 6-Chloro-2-[5-(3,5-dimethyl-isoxazol-4-ylmethyl)-pyridin-3-yl]-3,4-dihydro-2H-isoquinolin-1-one]
Human CYP11B1
  EC50: 900 nM
Human CYP11B2
  EC50: 40.8 nM

## CC(C)OCc1cncc(N2CCc3cc(Cl)ccc3C2=O)c1 [Example 194, 6-Chloro-2-(5-isopropoxymethyl-pyridin-3-yl)-3,4-dihydro-2H-isoquinolin-1-one]
Human CYP11B1
  EC50: 224 nM
Human CYP11B2
  EC50: 20.3 nM

## O=C1c2ccc(Cl)cc2CCN1c1cncc(Cn2cncn2)c1 [Example 180, 6-Chloro-2-(5-[1,2,4]triazol-1-ylmethyl-pyridin-3-yl)-3,4-dihydro-2H-isoquinolin-1-one]
Human CYP11B1
  EC50: 802 nM
Human CYP11B2
  EC50: 123 nM

## O=C(Nc1cncc(N2CCc3cc(Cl)ccc3C2=O)c1)c1ccc(F)cc1 [Example 249, N-[5-(6-Chloro-1-oxo-3,4-dihydro-1H-isoquinolin-2-yl)-pyridin-3-yl]-4-fluoro-benzamide]
Human CYP11B1
  EC50: 7600 nM
Human CYP11B2
  EC50: 3220 nM

## COc1cncc(N2CC(C)c3cc(Cl)ccc3C2=O)c1 (stereo not shown) [Example 107, 6-Chloro-2-(5-methoxy-pyridin-3-yl)-4-methyl-3,4-dihydro-2H-isoquinolin-1-one]
Human CYP11B1
  EC50: 770 nM
Human CYP11B2
  EC50: 63.5 nM

## CC(C)(O)c1cncc(N2CCc3cc(Cl)ccc3C2=O)c1 [Example 12, 6-Chloro-2-[5-(1-hydroxy-1-methyl-ethyl)-pyridin-3-yl]-3,4-dihydro-2H-isoquinolin-1-one]
Human CYP11B1
  EC50: 118 nM
Human CYP11B2
  EC50: 35.7 nM

## Cc1ccnn1Cc1cncc(N2CCc3cc(Cl)ccc3C2=O)c1 [Example 71, 6-Chloro-2-[5-(5-methyl-pyrazol-1-ylmethyl)-pyridin-3-yl]-3,4-dihydro-2H-isoquinolin-1-one]
Human CYP11B1
  EC50: 1580 nM
Human CYP11B2
  EC50: 90.2 nM

## CC(=O)NC1CCc2c1cncc2N1Cc2cc(Cl)ccc2C1=O (single isomer, unassigned; (+)) [Example 319, (+)-N—[(R or S)-4-(5-Chloro-1-oxo-1,3-dihydro-isoindol-2-yl)-6,7-dihydro-5H-[2]pyrindin-7-yl]-acetamide]
Human CYP11B1
  EC50: 5130 nM
Human CYP11B2
  EC50: 109 nM

## O=C1c2ccc(Cl)cc2C2(CC2)N1c1cncc(OC(F)F)c1 [Example 291, 6′-Chloro-2′-[5-(difluoromethoxy)pyridin-3-yl]spiro[cyclo-propane-1,1′-isoindol]-3′(2′H)-one]
Human CYP11B1
  EC50: 122 nM
Human CYP11B2
  EC50: 3.2 nM
